The record followed here is patent US20220087983A1, “ACTIVATING PYRUVATE KINASE R” (FORMA Therapeutics, Inc., priority 2020, published 2022).

The subject of one data set is ATP blood levels. The data set is described as follows: Phase 1: blood ATP levels in healthy volunteers (LC-MS/MS). The settings on record: for Mean maximum percent change from baseline in ATP: all doses and timepoints. It counts as in vivo, human. The protocol:
(§1) In this study, SAD/MAD cohorts are randomized (3 to 1) to receive Compound 1 or placebo (P). Compound 1 was evaluated first in 4 healthy SAD cohorts and 4 healthy MAD (14-day dosing period) cohorts. Based on the safety, and PK/PD profile from HS, Compound 1 is then evaluated in 1 SCD SAD cohort and 2 SCD MAD cohorts. Specifically, based on the safety and pharmacokinetic/pharmacodynamics (PK/PD) profile in healthy volunteer studies, Compound 1 is evaluated in patients (pts) with SCD, first in a single dose (SD or SAD) cohort and then in multiple-dose (MD or MAD) cohorts (14-day and 12-week). Safety assessments include AEs, vital signs, ECGs and laboratory parameters. PK/PD blood sampling was performed on Day 1 (SAD/MAD) and Day 14 (MAD) and up to 72 h after the last dose and at the end-of-study visit. PD parameters included 2,3-DPG, ATP, and p50 in all cohorts with additional PD studies (including oxygen scan) performed only in the SCD cohorts. PD parameters included 2,3-DPG, ATP, p50, RBC deformability with controlled deoxygenation and reoxygenation (Lorrca® oxygen scan) and varying osmolality (Lorrca® osmoscan)). To maintain study blind, pt identifiers were removed when needed.
In the MAD cohorts, the subjects' blood ATP levels were measured […] by a qualified LC-MS/MS method for the quantitation of ATP in blood. […] Table 20A reports the median percentage change in blood ATP levels, relative to baseline, measured over time after the first dose on days 1 and 14 in healthy volunteers who received daily doses of Compound 1 (100 mg BID, 200 mg BID, 300 mg BID, or 400 mg QD) or placebo for 14 days. Table 20B reports the mean percentage change in ATP blood levels, relative to baseline, measured over time after the first dose on days 1 and 14 in healthy volunteers who received daily doses of Compound 1 (100 mg BID, 200 mg BID, 300 mg BID, or 400 mg QD) for 14 days.
The following procedures are employed for the analysis of ATP and 2,3-DPG in human whole blood K2EDTA using a protein precipitation extraction procedure and analysis by LC-MS/MS. […]

The target in another data set is T1, CYP3A4 (Homo sapiens, UniProt P08684).
T1 construct: from tissue; host or cells: human liver microsomes
T1 sequence (P08684 whole entry): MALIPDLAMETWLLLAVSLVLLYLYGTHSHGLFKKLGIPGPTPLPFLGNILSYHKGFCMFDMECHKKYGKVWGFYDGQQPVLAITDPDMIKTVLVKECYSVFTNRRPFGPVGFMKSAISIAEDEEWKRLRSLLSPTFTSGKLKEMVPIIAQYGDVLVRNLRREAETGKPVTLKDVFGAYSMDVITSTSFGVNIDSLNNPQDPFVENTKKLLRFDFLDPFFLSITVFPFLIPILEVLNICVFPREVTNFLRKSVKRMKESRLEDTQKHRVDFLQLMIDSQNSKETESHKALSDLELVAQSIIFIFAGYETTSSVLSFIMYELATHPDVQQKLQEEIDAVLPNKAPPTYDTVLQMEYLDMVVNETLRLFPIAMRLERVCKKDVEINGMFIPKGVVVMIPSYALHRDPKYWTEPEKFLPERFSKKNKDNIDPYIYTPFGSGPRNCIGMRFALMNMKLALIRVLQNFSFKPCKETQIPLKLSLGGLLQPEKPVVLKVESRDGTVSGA
The data set is described as follows: Single substrate DDI assay, reversible CYP inhibition in human liver microsomes. Format: in vitro ADME.

Data set [1] can be described thus: Phase 1: safety, adverse events in healthy volunteers. Format: in vivo, human. The protocol:
as §1
Primary Outcome Measures: • 1. Incidence, frequency, and severity of adverse events (AEs) per CTCAE v5.0 of a single ascending dose and multiple ascending doses of Compound 1 in adult healthy volunteers and SCD patients. Incidence of abnormal laboratory test results (clinical chemistry, endocrine hematology, urinalysis). Change from baseline in vital signs (blood pressure, respiratory rate, heart rate, and oral temperature). […] Area under the plasma concentration-time curve from time zero until last quantifiable time point (AUC0-last) • [Time Frame: Up to 3 weeks of testing] • 6. […]
Among the TEAEs reported in Table 13, TEAEs of grade 2 or less related to Compound 1 in the SAD cohorts included headache (n=1) and transient ventricular tachycardia (n=1), each in a different subject. […] The subject's back-up sample was re-assessed independently, and no lipase elevation was detected.

The nature of another data set: Permeability Papp (A-B). The settings on record: not told. It counts as in vitro ADME.
A short description of data set [2]: Preclinical safety: arrhythmia risk, mutagenicity, panels of receptors, enzymes, ion channels and kinases in vitro.

A value given as a limit tells only on which side of the number the result lay.

`O=C([C@H](CO)c1ccccc1)N1CC2=C(C1)CN(S(=O)(=O)c1cnc3c(c1)OCCO3)C2` (single isomer, unassigned) [Compound 1]: the “Mean maximum percent change from baseline in ATP” value was 68.5% in the data set with ATP blood levels (HV MAD, N = 36) and 24.4% with ATP blood levels (HV SAD, N = 24). In addition, the “lag of maximum ATP increase behind maximum plasma concentration” value in the data set with ATP blood levels (HV, single 200-1000 mg dose) is recorded as “at least 24 hours”. This molecule had a concentration for half-maximal inhibition (IC50) against CYP3A4 of over 30 µM. Also, the results for the “Grade 1 headache incidence” value in data set [1] (HS receiving 14 days) and in data set [1] (HS receiving a single dose) were 28% and 4%, respectively. The “serious adverse events or AEs leading to withdrawal” value in data set [1] (HV SAD and MAD cohorts) is listed as “No serious adverse events (SAEs) or AEs leading to withdrawal”. For the same molecule, in the data set “Permeability Papp (A-B)”, the apical-to-basolateral permeability (Papp A→B) worked out at 5.46 ×10⁻⁶ cm/s. For the same molecule, in data set [2], the “preclinical evidence of arrhythmia risk, mutagenicity, or nonspecific binding activity” value is on record as “has not demonstrated any preclinical evidence of arrhythmia risk, mutagenicity, or nonspecific binding activity”.
